Assay results: ChEMBL document CHEMBL5226286, “The application of isatin-based multicomponent-reactions in the quest for new bioactive and druglike molecules” (Eur J Med Chem, 2021)
Converted amounts (≈) assume the structure as drawn.

Assays:
Aspergillus niger = experiment: Antifungal activity against Aspergillus niger assessed as zone of inhibition at 25 ug/ml; assay type: functional; details: read-out: DIZ
Candida metapsilosis = experiment: Antifungal activity against Candida metapsilosis assessed as zone of inhibition at 25 ug/ml; assay type: functional; details: Lodderomyces metapsilosis, read-out: DIZ
Leishmania major = experiment: Antileishmanial activity against Leishmania major promastigotes incubated for 72 hrs by micrscopic analysis; assay type: functional
Tobacco mosaic virus [1] = experiment: Antiviral activity against Tobacco mosaic virus assessed as curative effect relative to control; assay type: functional
Tobacco mosaic virus [2] = experiment: Antiviral activity against Tobacco mosaic virus assessed as inactivation effect relative to control; assay type: functional
Tobacco mosaic virus [3] = experiment: Antiviral activity against Tobacco mosaic virus assessed as protection effect relative to control; assay type: functional
Salmonella sp. = experiment: Antibacterial activity against Salmonella sp. NCIM 2501 by microdilution broth method; assay type: functional
Pseudomonas aeruginosa = experiment: Antibacterial activity against Pseudomonas aeruginosa NCIM 5029 by microdilution broth method; assay type: functional
Proteus vulgaris = experiment: Antibacterial activity against Proteus vulgaris NCIM 2813 by microdilution broth method; assay type: functional
Escherichia coli [4] = experiment: Antibacterial activity against Escherichia coli NCIM 2931 by microdilution broth method; assay type: functional
Staphylococcus aureus [5] = experiment: Antibacterial activity against Staphylococcus aureus NCIM5021 by microdilution broth method; assay type: functional
A549 = experiment: Anticancer activity against human A549 cells by MTT assay; assay type: functional, cell-based
K562 = experiment: Anticancer activity against human K562 cells by MTT assay; assay type: functional, cell-based
PC-3 = experiment: Antiproliferative activity against human PC-3 cells; assay type: functional, cell-based
LNCaP = experiment: Antiproliferative activity against human LNCaP cells; assay type: functional, cell-based
T47D = experiment: Antiproliferative activity against human T47D cells by MTT reduction assay; assay type: functional, cell-based
MDA-MB-231 [6] = experiment: Antiproliferative activity against human MDA-MB-231 cells by MTT reduction assay; assay type: functional, cell-based
MCF7 = experiment: Antiproliferative activity against human MCF7 cells by MTT reduction assay; assay type: functional, cell-based
MDA-MB-435 = experiment: Antiproliferative activity against human MDA-MB-435 cells; assay type: functional, cell-based
Proteus mirabilis = experiment: microbe, parasite or virus in culture; details: PTCC 1776
Description: Antimicrobial activity against Proteus mirabilis PTCC 1776 by broth disk diffusion microdilution method

[7] = tested on: Staphylococcus epidermidis; experiment: microbe, parasite or virus in culture; details: PTCC 1435
Description: Antimicrobial activity against Staphylococcus epidermidis PTCC 1435 by broth disk diffusion microdilution method

Bacillus subtilis [8] = experiment: Antibacterial activity against Bacillus subtilis by agar well diffusion method; assay type: functional
Staphylococcus aureus [9] = experiment: Antibacterial activity against Staphylococcus aureus by agar well diffusion method; assay type: functional
Escherichia coli [10] = experiment: Antibacterial activity against Escherichia coli by agar well diffusion method; assay type: functional
HepG2 = experiment: Growth inhibition of human HepG2 cells at 20 micromol relative to control; assay type: functional; details: dose 20 µmol
HeLa = experiment: Growth inhibition of human HeLa cells at 20 micromol relative to control; assay type: functional; details: dose 20 µmol
MDA-MB-231 [11] = experiment: Growth inhibition of human MDA-MB-231 cells at 20 micromol relative to control; assay type: functional; details: dose 20 µmol
Saccharomyces cerevisiae = experiment: Antifungal activity against Saccharomyces cerevisiae MTCC 170; assay type: functional
Candida albicans = experiment: Antifungal activity against Candida albicans MTCC 227; assay type: functional
Escherichia coli [12] = experiment: microbe, parasite or virus in culture
Staphylococcus aureus [13] = experiment: microbe, parasite or virus in culture
Bacillus subtilis [14] = experiment: Antibacterial activity against Bacillus subtilis; assay type: functional

SMILES: CCOC1=Nc2ccccc2/C1=C\C(=O)c1ccccc1O
- zone of inhibition at 25 µg/mL (Aspergillus niger): 10 mm
- zone of inhibition at 25 µg/mL (Candida metapsilosis): 11 mm

SMILES: N=C(N)c1ccc(OCCCCCOc2ccc(C(=N)N)cc2)cc1 [PENTAMIDINE]
- MIC (Leishmania major): 5.22 µM (≈ 1.78 µg/mL)

SMILES: COc1ccc([C@@H]2CN(C)[C@]3(C(=O)N(C)c4ccccc43)[C@]23Oc2cc(O)ccc2C3=O)cc1
- Activity (Tobacco mosaic virus [1]): 47.3%
- Activity (Tobacco mosaic virus [2]): 55.1%
- Activity (Tobacco mosaic virus [3]): 51.2%

SMILES: O=C1Nc2ccccc2[C@@]1(O)[C@@]1(OCc2ccc(Cl)cc2)C(=O)Nc2ccccc21
- MIC (Salmonella sp.): 0.074 µg/mL (≈ 0.176 µM)
- MIC (Pseudomonas aeruginosa): 0.074 µg/mL (≈ 0.176 µM)
- MIC (Proteus vulgaris): 0.149 µg/mL (≈ 0.354 µM)
- MIC (Escherichia coli [4]): 0.074 µg/mL (≈ 0.176 µM)
- MIC (Staphylococcus aureus [5]): 0.149 µg/mL (≈ 0.354 µM)

SMILES: CC(C)=CC(=O)[C@H]1[C@H](c2ccc(Br)cc2)CN(C)[C@]12C(=O)Nc1ccc(Br)cc12
- IC50 (A549): 22.9 µM
- IC50 (K562): 5.7 µM

SMILES: CC(O)(CS(=O)(=O)c1ccc(F)cc1)C(=O)Nc1ccc(C#N)c(C(F)(F)F)c1 (stereo not drawn) [BICALUTAMIDE]
- IC50 (PC-3): 1.3 µM
- IC50 (LNCaP): 1.5 µM

SMILES: O=C1c2ccccc2C2Oc3c(c(=O)oc4ccccc34)C3(C(=O)N(c4ccc(Cl)cc4)c4ccccc43)C12 (stereo not drawn)
- IC50 (PC-3): 0.08 µM
- IC50 (LNCaP): 1.3 µM

SMILES: O=C(c1ccc(OCCN2CCC2)cc1)[C@H]1[C@H](c2ccccc2)C2CS[C@H](c3ccccc3)N2C12C(=O)Nc1ccc(Cl)cc12 (stereo partly drawn)
- IC50 (T47D): 4.7 µM
- IC50 (MDA-MB-231 [6]): 4.2 µM
- IC50 (MCF7): 3.7 µM

SMILES: CC/C(=C(\c1ccccc1)c1ccc(OCCN(C)C)cc1)c1ccccc1 [TAMOXIFEN]
- IC50 (T47D): 14.2 µM
- IC50 (MDA-MB-231 [6]): 14.5 µM
- IC50 (MDA-MB-435): 0.1 µM

SMILES: COc1ccc(CO[C@]2([C@@]3(O)C(=O)Nc4ccccc43)C(=O)Nc3ccccc32)cc1
- MIC (Salmonella sp.): 0.038 µg/mL (≈ 0.0913 µM)
- MIC (Pseudomonas aeruginosa): 0.038 µg/mL (≈ 0.0913 µM)
- MIC (Proteus vulgaris): 0.075 µg/mL (≈ 0.18 µM)
- MIC (Escherichia coli [4]): 0.038 µg/mL (≈ 0.0913 µM)
- MIC (Staphylococcus aureus [5]): 0.075 µg/mL (≈ 0.18 µM)

SMILES: O=C1Nc2ccccc2[C@@]1(O)[C@@]1(OCc2ccc(Br)cc2)C(=O)Nc2ccccc21
- MIC (Salmonella sp.): 0.034 µg/mL (≈ 0.0731 µM)
- MIC (Pseudomonas aeruginosa): 0.067 µg/mL (≈ 0.144 µM)
- MIC (Proteus vulgaris): 0.067 µg/mL (≈ 0.144 µM)
- MIC (Escherichia coli [4]): 0.034 µg/mL (≈ 0.0731 µM)
- MIC (Staphylococcus aureus [5]): 0.067 µg/mL (≈ 0.144 µM)

SMILES: CC1(C)CC(=O)C(=C2SC(N)=C(C#N)C3(S2)C(=O)N(Cc2ccc(Cl)cc2Cl)c2ccccc23)C(=O)C1 (stereo not drawn)
- MIC (Proteus mirabilis): 16 µg/mL (≈ 28 µM)
- MIC [7]: 8 µg/mL (≈ 14 µM)

SMILES: CC1(C)S[C@@H]2[C@H](NC(=O)Cc3ccccc3)C(=O)N2[C@H]1C(=O)O [PENICILLIN G]
- MIC (Proteus mirabilis): 16 µg/mL (≈ 47.8 µM)
- MIC [7]: 1 µg/mL (≈ 2.99 µM)

SMILES: CC1(C)CC(=O)C2=C(C1)N(c1ccc(Cl)cc1)C(=O)C21C2=C(Nc3ccccc31)c1ccccc1C2=O (stereo not drawn)
- MIC (Bacillus subtilis [8]): 8 µg/mL (≈ 15.8 µM)
- MIC (Staphylococcus aureus [9]): 16 µg/mL (≈ 31.6 µM)
- MIC (Escherichia coli [10]): 64 µg/mL (≈ 126 µM)

SMILES: N#CC1=C(N)OC2=C(CSC/C2=C/c2ccc(C(F)(F)F)cc2)C12C(=O)Nc1ccccc12 (stereo not drawn)
- growth inhibition (GI) (HepG2): 73.1%
- growth inhibition (GI) (HeLa): 83.2%
- growth inhibition (GI) (MDA-MB-231 [11]): 61.3%

SMILES: CC1(C)CC(=O)C2=C(C1)N(c1ccccc1)C(=O)C21C2=C(Nc3ccc([N+](=O)[O-])cc31)c1ccccc1C2=O (stereo not drawn)
- MIC (Bacillus subtilis [8]): 16 µg/mL (≈ 30.9 µM)
- MIC (Staphylococcus aureus [9]): 16 µg/mL (≈ 30.9 µM)
- MIC (Escherichia coli [10]): 128 µg/mL (≈ 247 µM)

SMILES: COc1ccc(-n2cc(CN3C(=O)C4(C(C#N)=C(N)OC5=C4C(=O)CC(C)(C)C5)c4ccccc43)nn2)cc1 (stereo not drawn)
- MIC (Saccharomyces cerevisiae): 64 µg/mL (≈ 122 µM)
- MIC (Candida albicans): 128 µg/mL (≈ 245 µM)

SMILES: Cc1nn(-c2ccccc2)c2c1C1(C(=O)Nc3ccc([N+](=O)[O-])cc31)C1=C(CC(C)(C)CC1=O)O2 (stereo not drawn)
- MIC (Escherichia coli [12]): 128 µg/mL (≈ 272 µM)
- MIC (Staphylococcus aureus [13]): 32 µg/mL (≈ 68 µM)
- MIC (Bacillus subtilis [14]): 64 µg/mL (≈ 136 µM)

SMILES: CNCC(=O)N[C@@H](CO)C(=O)N[C@H]1[C@H](O)[C@@H](O)[C@H](n2ccc(N)nc2=O)O[C@@H]1C(N)=O [NINGNANMYCIN]
- Activity (Tobacco mosaic virus [1]): 55.9%
- Activity (Tobacco mosaic virus [2]): 58.8%
- Activity (Tobacco mosaic virus [3]): 57.1%

SMILES: CC(C)=CC(=O)[C@H]1[C@H](c2ccc(F)cc2)CN(C)[C@]12C(=O)N(C)c1ccccc12
- IC50 (A549): 19.1 µM
- IC50 (K562): 7.2 µM

SMILES: CC1(C)CC(=O)C(=C2SC(N)=C(C#N)C3(S2)C(=O)Nc2ccc(Cl)cc23)C(=O)C1 (stereo not drawn)
- MIC (Proteus mirabilis): 16 µg/mL (≈ 35.9 µM)
- MIC [7]: 2 µg/mL (≈ 4.48 µM)
